Assay results as given in patent publication US20110003753A1, “COMPOSITIONS AND METHODS FOR DISRUPTING THE FUNCTION OF THE TRANSCRIPTIONAL REPRESSOR COMPONENT Sin3A-PAH2 DOMAIN TO INDUCE DIFFERENTIATION AND GROWTH INHIBITION IN BREAST CANCER” (SAMUEL WAXMAN CANCER RESEARCH FOUNDATION, priority 2009, published 2011).

What was measured:
Assay type in all cases: cell-based, human
MDA-MB-231 cells = assay: Three-dimensional morphogenesis assay in Matrigel; conditions: 5 μM peptide, Matrigel 3D culture
Protocol: FIG. 3: A. Morphogenesis in 3D cultures in Matrigel. MDA-MB-231 and MMTV-Myc cells expressing SID or the double mutant were cultured in 3D-Matrigel for 14 days. […] B. Reversion of the invasive phenotype of the MDA-MB-231 cells in Matrigel 3D cultures. Upper panel indicates change in numbers of invasive versus non invasive colonies (as indicated in crosshatched and non-crosshatched bars, respectively) in the presence of different concentrations (as indicated) of cell penetrating SID or SID^SCR (scrambled control) peptide. The colonies were counted after 10 days of treatment with a medium containing fresh peptide changed every 24 hours. […] The reduction in invasive phenotype was quantified by counting 5 low magnification fields per well done in triplicates (upper panel). The p value was calculated using the unpaired Student t test.
3D cultures of MDA-MB-231 and MMTV-Myc cells stably transfected with pEGFP-SID, pEGFP-SID2Mut or the parent vector pEGFP-N3 were prepared as described by Debnath et al. (Debnath et al2003). Briefly, […] of growth factor depleted Matrigel (BD Biosciences) was applied on 8-well multichamber slides (BD Biosciences) and incubated at 37° C. for 30 minutes. Once the Matrigel solidified 5×10^3 cells were seeded on top of the gels in assay medium containing 2% Matrigel and 20 ng/ml […]. Growth medium was changed daily for 14 days. Once colony formation was evident, the SID or the scramble control peptide was added to the MDA-MB-231 parental cells in the medium starting at day 3. The morphology of the colonies was determined by confocal microscopy. Induction of apoptosis was determined by staining colonies with activated caspase-3 antibody (BD Transduction Labs) and cell polarization by staining with anti-GM130 antibody (BD Transduction Labs). Cell nuclei were visualized by DAPI (Sigma) staining. […]

ERα and RARβ = assay: Re-expression of silenced genes in MDA-MB-231 cells
Source text: This finding coincides with the increased expression of E-cadherin and CRBP1, known RAR target genes and the induction of p27, highly sensitive to RAR activation. […] Thus, blocking specific sites of a component of a transcriptional repressor limited to few transcription factors can be used to induce a differentiation phenotype and anti-tumor effect in breast cancer and that these events may, impart new and/or restore therapeutic targets in breast cancer.

MDA-MB-231 = assay: Phenotypic (morphology) changes in culture; conditions: cells in culture
Source text: FIG. 1: Expression of a decoy peptide corresponding to MAD Sin3 interaction domain (SID) induces markers of differentiation and contact inhibition in MDA-MB-231 breast cancer cells. A. Schematic of the SID peptides and expression constructs used in this study. Shown in the upper panel are the design and sequence of the Tat-SID peptide and Tat-SID^SCR scrambled control. The Tat-SID peptide corresponds to amino acids 5-24 of MAD. This sequence binds Sin3 PAH2 with high affinity and has been previously used to study SID-PAH2 interactions in vitro. Peptides contain a leader sequence (YGRKKRRQGGG, SEQ ID No. 5) corresponding to the human immunodeficiency virus type 1 Tat arginine-rich RNA-binding motif (ARM), which has been mutated (RRR>GGG) to improve nuclear entry. B. Morphological changes induced by SID in MDA-MB-231 and MMTV-Myc. […] D. Confocal IF analyses showing the re-expression of membrane-associated E-cadherin induced by the expression of SID in MDA-MB-231 cells (top row) and MMTV-Myc cells (bottom row) E. Re-expression of nuclear RARβ in MDA-MB-231 cells detected by immunofluorescence microscopy. […]

YGRKKRRQGGGVRMNIQMLLEAADYLERRER [SID peptide]
number and size of the colonies (MDA-MB-231 cells): reduced
decrease in number of colonies with invasive phenotype (MDA-MB-231 cells; colonies counted after 10 days of treatment): ~80%
re-expression of ERα and RARβ (ERα and RARβ): induced the re-expression of ERα and RARβ
phenotypic change of cell morphology (MDA-MB-231): cobblestone monolayers and well defined cell-cell contact accompanied by cell growth contact inhibition
